We go through seven compounds from US20130317040A1, “METHODS FOR TREATING SYSTEMIC LUPUS ERYTHEMATOSUS USING HIV PROTEASE INHIBITORS” (The Feinstein Institute of Medical Research, priority 2010, published 2013).

In series [1] the test system is lupus anti-dsDNA monoclonal antibody, R4A. Nature of the series: Competitive ELISA, R4A binding to bound DWEYS peptide. The arrangement: species or system mouse. Conditions: for inhibition of R4A binding, DWEYS: competitive ELISA, bound D-DWEYS, at the most effective concentration of compound; for inhibition of R4A binding to D-DWEYS-5 peptide on ELISAs: R4A 2 μg/ml, 1 μM, 10 μM and 100 μM, highest concentrations showed the greatest inhibition. As to the method: (§1) To test whether these antiviral drugs might inhibit R4A binding, competitive ELISAs, with bound DWEYS peptide, bound dsDNA, or bound C1q protein, were performed. […] Activity in these ELISAs is predictive of binding activity with naturally occurring anti-dsDNA antibodies in lupus patients.
(§2) ELISAs. […] Antigens were absorbed to microtiter plate wells (either D-DWEYS (20 μg/ml) in PBS, calf thymus DNA (100 μg/ml) in NaHCO3 (0.1M, pH 8.6) or full length complement component C1q (10-20 μg/ml) in PBS) overnight at 37° C. […] The competitive ELISA was performed as described, using R4A monoclonal antibodies (2-20 μg/ml). […] The plates were washed and alkaline phosphatase-conjugated goat anti-mouse IgG antibody was added for 1 h at 37° C.
Background: An ELISA detects its analyte on a solid surface through an enzyme-linked reagent.

Series [2] has the same test system. Nature of the series: Competitive ELISA, R4A binding to bound dsDNA (calf thymus DNA). Also on record: species or system mouse. The following applies: for inhibition of R4A binding, DNA: competitive ELISA, bound calf thymus DNA, at the most effective concentration of compound. As to the method: as §1, §2
Series [3] shares this test system. Nature of the series: Competitive ELISA, R4A binding to bound C1q protein. Also on record: species or system mouse. The following applies: at the most effective concentration of compound. Here is the method: as §1, §2
Series [4] deals with mouse monoclonal anti-dsDNA antibody, R4A. Kind of series: Deposition of R4A to kidney glomeruli ex vivo. The format is binding. Conditions: detected with fluorescently-labeled secondary antibody. The source says:
Nephrotoxicity: nelfinavir was also found to suppress pathologic deposition of mouse monoclonal anti-dsDNA antibody, […], to kidney glomeruli ex vivo. […] For methodology see Bloom, O. et al., (2011), PNAS 108:10255-10259 and Zhang, J. et al., (2009), J. Autoimmun. 33:270-274.

Series [5] deals with lupus patient sera components binding to DNA (anti-dsDNA antibodies). Nature of the series: ELISA, lupus patient sera binding to DNA. Also on record: species or system human. Conditions: compound at 1, 10 and 100 micromolar; sera from lupus patients with elevated anti-dsDNA titers. The source says:
In early tests, inhibition of lupus patient sera components binding to DNA by nelfinavir was observed (data not shown). Sera, collected from lupus patients with moderately active disease and elevated titers of anti-dsDNA antibodies, was used for an ELISA assay for binding to DNA. The addition of nelfinavir in micromolar concentrations of 1, 10 and 100 decreased DNA binding by an average of 43%.

For series [6], the system named is R4A-induced apoptosis in the central nervous system. Nature of the series: R4A-induced neurotoxicity in vivo, hippocampal injection, TUNEL staining. Conditions: R4A pre-incubated with inhibitor 15 min at 37° C., injected into hippocampus; brain slices after 48 hours. As to the method: Neurotoxicity: protection from R4A-induced apoptosis in the central nervous system was assessed by TUNEL staining. […] R4A was pre-incubated with vehicle or HIV protease inhibitors for 15 min. at 37° C. The preparation was then stereotaxically injected into the hippocampus of test animals. After 48 hours, brain slices at the injection site were subjected to TUNEL staining. […] For methodology see Bloom, O. et al., (2011), supra, and Zhang, J. et al., (2009), supra.

For series [7] the following is noted: in vivo; cited from earlier work.
The subject of another series is cytochrome P-450 enzymes. Conditions: cited from earlier work.
Where [8] appears, read: R4A 5 μg/ml, compound at 25 μM and 50 μM.

Molecules are shown by their SMILES.

As for `CC(C)(C)NCC1CC2CCCCC2CN1CC(O)C(Cc1ccccc1)NCC(CCN)NCC1Nc2ccccc2CC1O` (stereo not shown) [12W, 2-((4-amino-1-(4-(3-((tert-butylamino)methyl)octahydroisoquinolin-2(1H)-yl)-3-hydroxy-1-phenylbutan-2-ylamino)butan-2-ylamino)methyl)-1,2,3,4-tetrahydroquinolin-3-ol], the “inhibition of R4A binding, DWEYS” value in series [1] came to 31%. Further, the “inhibition of R4A binding, DNA” value in series [2] is 32%. Further, the “inhibition of R4A binding, C1q assay” value in series [3] was determined as 18%.

Regarding `COC(=O)N[C@H](C(=O)N[C@@H](Cc1ccccc1)[C@@H](O)CN(Cc1ccc(-c2ccccn2)cc1)NC(=O)[C@@H](NC(=O)OC)C(C)(C)C)C(C)(C)C` [Atazanavir, atazanavir], in series [1], the “inhibition of R4A binding to D-DWEYS-5 peptide on ELISAs” value was “improved inhibition” and the “inhibition of R4A binding, DWEYS” value is recorded as 46%. In series [2], the “inhibition of R4A binding, DNA” value is listed as 38%. Further, the “inhibition of R4A binding, C1q assay” value in series [3] was 64%. Further, the “R4A binding (deposition) to kidney glomeruli ex vivo” value (from here on “R4A binding (deposition)”) in series [4] is recorded as “only nelfinavir decreased”.

With `CC(C)CN(C[C@@H](O)[C@H](Cc1ccccc1)NC(=O)O[C@H]1CO[C@H]2OCC[C@H]21)S(=O)(=O)c1ccc(N)cc1` [Darunavir, darunavir], the “inhibition of R4A binding, DWEYS” value in series [1] was 16%. In addition, in series [2], the “inhibition of R4A binding, DNA” value worked out at 3%. For the same compound, in series [3], the “inhibition of R4A binding, C1q assay” value amounted to 0%.

Take `Cc1cccc(C)c1OCC(=O)N[C@@H](Cc1ccccc1)[C@@H](O)C[C@H](Cc1ccccc1)NC(=O)[C@H](C(C)C)N1CCCNC1=O` [Lopinavir, lopinavir]: in series [1], the “inhibition of R4A binding to D-DWEYS-5 peptide on ELISAs” value was “improved inhibition” and the “inhibition of R4A binding, DWEYS” value is 56%. Further, the “inhibition of R4A binding, DNA” value in series [2] amounted to 32%. Besides, the “inhibition of R4A binding, C1q assay” value in series [3] was found to be 38%. Further, the “R4A binding (deposition)” value in series [4] is recorded as “only nelfinavir decreased”.

Turning to `CC(C)c1nc(CN(C)C(=O)N[C@H](C(=O)N[C@@H](Cc2ccccc2)C[C@H](O)[C@H](Cc2ccccc2)NC(=O)OCc2cncs2)C(C)C)cs1` [Ritonavir, ritonavir], in series [1], the “inhibition of R4A binding, DWEYS” value stood at 8%. Besides, in series [2], the “inhibition of R4A binding, DNA” value worked out at 0%. Besides, the “inhibition of R4A binding, C1q assay” value in series [3] was 13%.

Turning to `CC(C)(C)NC(=O)[C@@H]1C[C@@H]2CCCC[C@@H]2CN1C[C@@H](O)[C@H](Cc1ccccc1)NC(=O)[C@H](CC(N)=O)NC(=O)c1ccc2ccccc2n1` [Saquinavir, saquinavir], in series [1], the “inhibition of R4A binding to D-DWEYS-5 peptide on ELISAs” value is reported as “improved inhibition” and the “inhibition of R4A binding, DWEYS” value is 33%. In series [2], the “inhibition of R4A binding, DNA” value turned out to be 31%. In series [3], the “inhibition of R4A binding, C1q assay” value is 54%. Besides, the “R4A binding (deposition)” value in series [4] was “only nelfinavir decreased”.

On to `Cc1c(O)cccc1C(=O)N[C@@H](CSc1ccccc1)[C@H](O)CN1C[C@H]2CCCC[C@H]2C[C@H]1C(=O)NC(C)(C)C` [nelfinavir], for which the “inhibition of R4A binding to DWEYS peptide on ELISAs” value in series [1] (setting [8]) was “Significant inhibition”. In addition, the “inhibition of R4A binding to DNA on ELISAs” value in series [2] (setting [8]) is on record as “Significant inhibition”. The “decrease of lupus patient sera DNA binding (average)” value in series [5] stood at 43%. Further, the “R4A binding (deposition)” value in series [4] is “decreased the R4A binding”. The “protection from R4A neurotoxicity (TUNEL staining)” value in series [6] is listed as “block neurotoxicity”. Further, the “time until steady state of the drug is achieved” value in series [7] is 6 days. Further, the “metabolizing cytochrome P-450 enzymes” value with cytochrome P-450 enzymes was “CYP3A4, CYP2C19, CYP2C9, and CYP2D6”.
